Experimental data reported in patent US10253017B2, “Derivatives of 2-aminopyridine as adenosine A2B receptor antagonists and ligands of the melatonin MT3 receptors” (PALOBIOFARMA, S.L., priority 2015, dated 2019).

Columns and labels:
adenosine A2A receptor = adenosine A2A receptor (Homo sapiens (Human), UniProt P29274); experiment: Adenosine A2A receptor binding (hA2A Ki)
adenosine A2B receptor = adenosine A2B receptor (Homo sapiens (Human), UniProt P29275); experiment: Adenosine A2B receptor subtype competition radioligand binding assay ([3H]DPCPX); conditions: human recombinant receptor (HEK-293 cells), [3H]DPCPX radioligand; read-out: hA2B, Ki
Sequence of adenosine A2B receptor (P29275 whole entry): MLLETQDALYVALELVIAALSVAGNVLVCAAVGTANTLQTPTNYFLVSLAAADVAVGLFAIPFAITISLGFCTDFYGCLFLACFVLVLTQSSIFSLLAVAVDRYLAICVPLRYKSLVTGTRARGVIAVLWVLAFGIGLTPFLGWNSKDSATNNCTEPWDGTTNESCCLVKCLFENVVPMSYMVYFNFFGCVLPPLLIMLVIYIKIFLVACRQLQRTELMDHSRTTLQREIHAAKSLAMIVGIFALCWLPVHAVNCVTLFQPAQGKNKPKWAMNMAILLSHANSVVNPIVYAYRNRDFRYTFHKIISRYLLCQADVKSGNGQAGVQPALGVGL
Source text: Adenosine A2B Receptor Subtype Competition Radioligand Binding Assay

MT3 melatonin receptor = MT3 melatonin receptor (Mesocricetus auratus, UniProt A0ABM2YAB8); experiment: Binding to melatonin MT3 binding sites ([125I]2-iodomelatonin, hamster brain membranes); conditions: [125I]2-iodomelatonin radioligand
Sequence of MT3 melatonin receptor (A0ABM2YAB8 1-231): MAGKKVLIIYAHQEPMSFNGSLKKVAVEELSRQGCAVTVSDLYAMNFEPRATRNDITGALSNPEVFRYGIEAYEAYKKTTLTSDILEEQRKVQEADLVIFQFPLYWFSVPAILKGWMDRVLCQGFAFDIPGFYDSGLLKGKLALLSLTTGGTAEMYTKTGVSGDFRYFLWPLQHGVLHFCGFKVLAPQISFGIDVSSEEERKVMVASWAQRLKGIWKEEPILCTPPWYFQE
Experimental: Study of Binding to Melatonin MT3 Binding Sites
The experiment of binding to MT3 sites was carried out on hamster brain membranes using [^125I]2-iodomelatonin as radioligand in accordance with the protocol described by Pickering, D. S et al. (Pickering, D. S et al, 1990, Pharmacological characterization of melatonin binding sites in Syrian hamster hypothalamus, Eur J Pharmacol. 1990 Jan. 3; 175(1):71-7).

Sequence of adenosine A2A receptor (P29274 whole entry): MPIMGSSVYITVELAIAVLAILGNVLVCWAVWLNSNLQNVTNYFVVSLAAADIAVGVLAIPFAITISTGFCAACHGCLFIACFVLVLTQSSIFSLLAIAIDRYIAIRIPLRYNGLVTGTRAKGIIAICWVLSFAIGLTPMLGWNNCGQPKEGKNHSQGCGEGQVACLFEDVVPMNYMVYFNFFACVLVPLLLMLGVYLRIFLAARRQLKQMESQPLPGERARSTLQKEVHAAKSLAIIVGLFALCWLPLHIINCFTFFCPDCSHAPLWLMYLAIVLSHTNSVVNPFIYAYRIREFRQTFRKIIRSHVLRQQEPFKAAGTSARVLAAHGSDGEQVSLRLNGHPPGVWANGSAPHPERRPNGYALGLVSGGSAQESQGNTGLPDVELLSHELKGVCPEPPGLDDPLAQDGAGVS

Row | Ki (adenosine A2A receptor) | Ki (adenosine A2B receptor) | IC50 (MT3 melatonin receptor) | SMILES
1 | 300 nM | 46.1 nM | 140 nM | Nc1nc(-c2cccnc2)c(-c2ccncc2)cc1Br [Example 22, 3-bromo-6-(pyridin-3-yl)-5-(pyridin-4-yl)pyridin-2-amine]
2 | 1300 nM | 13 nM | – | Nc1nc(-c2ccncc2)c(-c2ccncc2F)cc1Br [Example 35, 3-bromo-5-(3-fluoropyridin-4-yl)-6-(pyridin-4-yl)pyridin-2-amine]
3 | > 5000 nM | 37 nM | – | Nc1nc(-c2cccnc2)c(-c2ccncc2F)cc1Br [Example 24, 3-bromo-5-(3-fluoropyridin-4-yl)-6-(pyridin-3-yl)pyridin-2-amine]
4 | > 5000 nM | 150 nM | 250 nM | Nc1nc(-c2cncc(F)c2)c(-c2ccncc2F)cc1Cl [Example 27, 3-chloro-6-(5-fluoropyridin-3-yl)-5-(3-fluoropyridin-4-yl)pyridin-2-amine]
5 | > 5000 nM | 24 nM | – | COc1ccc(-c2nc(N)c(Cl)cc2-c2ccncc2F)cn1 [Example 36, 3-chloro-5-(3-fluoropyridin-4-yl)-6-(6-methoxypyridin-3-yl)pyridin-2-amine]
6 | > 5000 nM | 149 nM | – | Nc1ccc(-c2ccncc2F)c(-c2ccncc2)n1 [Example 11, 5-(3-fluoropyridin-4-yl)-6-(pyridin-4-yl)pyridin-2-amine]
7 | 555 nM | 12 nM | – | Nc1nc(-c2ccncc2)c(-c2ccncc2F)cc1Cl [Example 34, 3-chloro-5-(3-fluoropyridin-4-yl)-6-(pyridin-4-yl)pyridin-2-amine]
8 | 4800 nM | 23.9 nM | 98 nM | Nc1nc(-c2cccnc2)c(-c2ccncc2F)cc1Cl [Example 23, 3-chloro-5-(3-fluoropyridin-4-yl)-6-(pyridin-3-yl)pyridin-2-amine]
9 | 500 nM | 34.5 nM | 130 nM | Nc1nc(-c2cccnc2)c(-c2ccncc2)cc1Cl [Example 21, 3-chloro-6-(pyridin-3-yl)-5-(pyridin-4-yl)pyridin-2-amine]
